“Also recorded” adds a separate entry of the source.
Columns and labels:
[1] = PET uptake of labelled compounds into the brain of anesthetized rhesus monkeys after intravenous administration; type: in vivo, rhesus monkey; conditions: i.v.; for uptake value into the brain: rhesus monkey under anesthesia, whole brain (WB 9), FIG. 1
Description: ACN, ACM, CRN and ACC prepared in Examples 1, 3 and 5 in equal amounts were intravenously administered to rhesus monkeys under anesthesia, respectively, at intervals of two hours, and the uptake value of those labelled compounds into the brain (whole brain: WB 9) and into the temporal muscle (TEM 11) was traced with time by the use of PET. The uptake value was obtained by the following calculation: [formula]

[2] = PET uptake of ACM into the whole brain of a normal volunteer, rest and task condition; type: in vivo, human (normal volunteer); conditions: i.v., FIG. 2
Procedure: ACM synthesized in Example 3 was intravenously administered to a normal volunteer, and the uptake value of ACM into the whole brain was measured by use of PET in both the rest condition (WR 9) and task condition (calculation task, memory task: WB9-TASK).

[3] = PET uptake of ACM into the whole brain, normal volunteers versus CFS patients; type: in vivo, human (normal volunteers; conditions: i.v., normal n=5, CFS n=6 (FIG. 3: n=5)
Procedure: (§1) ACM synthesized in Example 1 was intravenously administered to normal volunteers (n=5) and CFS patients (n=6), and the ACM uptake values into the whole brain and visual cortex were measured with time by means of PET.

[4] = PET uptake of ACM into the visual cortex, normal volunteers versus CFS patients; type: in vivo, human (normal volunteers; conditions: i.v.
Procedure: as §1

[5] = ACM uptake value in blood plasma (hematocrit tube and imaging plate), normal volunteers versus CFS patients; type: in vivo, human (normal volunteers; conditions: normal n=5, CFS n=6, FIG. 6
Procedure: (§2) Blood was sampled from the normal volunteers and the CFS patients and the ACM uptake values in the blood plasma and blood cells thereof was measured by the combined method of hematocrit tube and imaging plate.

[6] = ACM uptake into erythrocytes and erythrocyte/blood plasma ratio (hematocrit tube and imaging plate), normal volunteers versus CFS patients; type: in vivo, human (normal volunteers
Procedure: as §2

With C[11C](=O)O[C@H](CC(=O)[O-])C[N+](C)(C)C [ACN, Acetyl-L-carnitine with ^11 C-labelled primary carbon atom of acetyl group] the “uptake value into the brain” value [1] was “taken up into the brain only slightly”.

For C[N+](C)(C)C[C@@H](CC(=O)[O-])OC([11CH3])=O [ACM, Acetyl-L-carnitine with the ^11 C-labelled secondary carbon atom of acetyl group], the “uptake value into the brain” value [1] was “excellent”, the “change of brain uptake with time” value ([1]; rhesus monkey, up to 60 minutes after the administration) was “almost linearly increased up to 60 minutes after the administration” and the “uptake into the whole brain in the task condition relative to rest” value ([2]; calculation and memory task versus rest) was “about twice”. The “uptake into the whole brain with time” value ([2]; rest condition) was “taken up with time even during rest condition”, the “increase with time in the ACM uptake value into the whole brain, CFS patients versus normal volunteers” value [3] was “significantly lower than that in the normal volunteers” and the “difference between CFS patients and normal volunteers in ACM uptake, visual cortex versus whole brain” value ([4]; FIG. 3 and FIG. 4) was “particularly observed in the visual cortex than in the whole brain”. For the same compound, the “increase with time in the ACM uptake value into the visual cortex, CFS patients versus normal volunteers” value ([4]; normal n=5, CFS n=6, FIG. 4) was “significantly lower than that in the normal volunteers”, the “ACM uptake value in blood plasma, course with time, normal volunteers and CFS patients” value [5] was “almost the same course; also recorded: no difference” and the “ratio erythrocyte/blood plasma of ACM uptake value, increase with time, CFS patients” value ([6]; CFS patients n=2, FIG. 7) was “inhibited in the CFS patients”. For the same compound, the “ACM uptake value into erythrocyte, CFS patients versus normal volunteers” value ([6]; inferred from erythrocyte/blood plasma ratio and unchanged plasma uptake) was “significantly lower than that in the normal volunteers” and the “ratio erythrocyte/blood plasma of ACM uptake value, change with time, normal subjects” value ([6]; normal subjects n=2, FIG. 7) was “increased with time in the normal subjects”.

With CC(=O)O[C@H](CC(=O)[O-])C[N+](C)(C)[11CH3] [ACC, acetyl-L-carnitine with the same label] the “uptake value into the brain” value [1] was “not taken up into the brain almost at all”.

For C[N+](C)([11CH3])C[C@H](O)CC(=O)[O-] [CRN, L-carnitine with the ^11 C-labelled N-methyl carbon atom of carnitine, reference compound], the “uptake value into the brain” value [1] was “not taken up into the brain almost at all”.

Reference: US5837219A, “Labelled acyl-L-carnitine and diagnostic agent” (Japan Science and Technology Corporation, priority 1995, dated 1998)
